# Source: US20230295200A1 (REGENTS OF THE UNIVERSITY OF MICHIGAN, priority 2022, published 2023)
# Key:
# STAT6 protein = target: T1, STAT6 protein (Homo sapiens, UniProt P42226); assay: Fluorescence polarization (FP) binding assay, STAT6; details: FP competition, 5 nM fluorescein-labeled tracer, 200 nM protein, PBS pH7.4; read-out: Binding STAT6
# T1 sequence (P42226 1-847): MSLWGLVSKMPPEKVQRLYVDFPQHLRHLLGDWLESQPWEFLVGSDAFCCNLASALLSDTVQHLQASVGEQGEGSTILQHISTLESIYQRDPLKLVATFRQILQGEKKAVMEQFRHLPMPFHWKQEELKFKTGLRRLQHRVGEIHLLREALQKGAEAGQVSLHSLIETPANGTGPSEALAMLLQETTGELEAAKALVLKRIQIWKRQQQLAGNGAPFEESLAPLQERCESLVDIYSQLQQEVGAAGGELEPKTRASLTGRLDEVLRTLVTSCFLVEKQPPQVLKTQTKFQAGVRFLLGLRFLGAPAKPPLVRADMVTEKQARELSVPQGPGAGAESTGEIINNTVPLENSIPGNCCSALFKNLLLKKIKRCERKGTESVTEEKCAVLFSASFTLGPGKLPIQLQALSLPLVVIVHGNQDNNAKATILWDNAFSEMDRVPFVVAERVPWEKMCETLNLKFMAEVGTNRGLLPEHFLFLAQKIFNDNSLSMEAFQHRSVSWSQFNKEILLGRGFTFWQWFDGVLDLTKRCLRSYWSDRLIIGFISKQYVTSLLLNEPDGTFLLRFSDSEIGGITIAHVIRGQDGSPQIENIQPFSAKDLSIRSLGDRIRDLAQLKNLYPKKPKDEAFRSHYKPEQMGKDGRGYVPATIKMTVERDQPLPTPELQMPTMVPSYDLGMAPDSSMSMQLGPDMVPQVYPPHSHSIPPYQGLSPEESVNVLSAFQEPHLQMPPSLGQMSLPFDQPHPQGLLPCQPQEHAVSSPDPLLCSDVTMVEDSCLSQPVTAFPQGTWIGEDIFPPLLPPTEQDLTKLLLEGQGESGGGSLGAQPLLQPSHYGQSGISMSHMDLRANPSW
# Summary of the method: (§1)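 Polarization read after 1 h equilibration at room temperature (preceded by 15 min shaking) of 200 nM STAT5 and/or STAT6 with 5 nM fluorescein tracer. Buffer: PBS pH 7.4 plus 0.01% BGG, 0.01% Tween-20, 2 mM DTT; inhibition constants derived by nonlinear fitting.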
# STAT5A = target: T2, STAT5A (Homo sapiens, UniProt P42229); assay: Fluorescence polarization (FP) binding assay, STAT5A; details: FP competition, 5 nM fluorescein-labeled tracer, 200 nM protein, PBS pH7.4
# T2 sequence (P42229 1-794): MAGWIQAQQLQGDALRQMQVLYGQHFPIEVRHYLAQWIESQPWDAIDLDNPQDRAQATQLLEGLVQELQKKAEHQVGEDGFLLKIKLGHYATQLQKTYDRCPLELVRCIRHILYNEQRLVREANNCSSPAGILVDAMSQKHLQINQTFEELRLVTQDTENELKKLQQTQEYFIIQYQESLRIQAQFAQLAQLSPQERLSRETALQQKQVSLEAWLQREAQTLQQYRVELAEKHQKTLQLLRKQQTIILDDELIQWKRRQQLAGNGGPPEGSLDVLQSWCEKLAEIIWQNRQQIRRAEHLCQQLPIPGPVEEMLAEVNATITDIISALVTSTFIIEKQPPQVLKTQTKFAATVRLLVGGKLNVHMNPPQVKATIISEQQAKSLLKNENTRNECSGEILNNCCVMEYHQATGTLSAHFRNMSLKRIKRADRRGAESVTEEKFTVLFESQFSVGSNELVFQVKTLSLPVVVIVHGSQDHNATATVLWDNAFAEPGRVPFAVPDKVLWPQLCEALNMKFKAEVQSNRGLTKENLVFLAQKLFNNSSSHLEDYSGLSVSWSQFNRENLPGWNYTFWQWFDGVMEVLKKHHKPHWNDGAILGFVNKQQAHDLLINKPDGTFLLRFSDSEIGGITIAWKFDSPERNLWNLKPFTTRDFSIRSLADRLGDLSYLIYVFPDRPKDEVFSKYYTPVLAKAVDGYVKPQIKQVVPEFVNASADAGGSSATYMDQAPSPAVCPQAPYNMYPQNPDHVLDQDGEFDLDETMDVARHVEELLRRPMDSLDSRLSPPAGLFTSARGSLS
# Summary of the method: as §1
Ki (STAT6 protein) [µM],Ki (STAT5A) [µM],SMILES
0.1 to 1,1 to 10,"CC(C)(C)[C@H](NC(=O)c1cc2cc(C(F)(F)P(=O)(O)O)ccc2s1)C(=O)N1CCC[C@H]1C(=O)N1CCOC(c2cccs2)C1 (stereo partly drawn) [Compound 127, ((2-(((2S)-3,3-dimethyl-1-oxo-1-((2S)-2-(2-(thiophen-2-yl)morpholine-4-carbonyl)pyrrolidin-1-yl)butan-2-yl)carbamoyl)benzo[b]thiophen-5-yl)difluoromethyl)phosphonic acid]"
1 to 10,> 10,"CC(C)(C)[C@H](NC(=O)c1cc2cc(C(F)(F)P(=O)(O)O)ccc2s1)C(=O)N1CCC[C@H]1C(=O)N1CCOC(c2nccs2)C1 (stereo partly drawn) [Compound 128, ((2-(((2S)-3,3-dimethyl-1-oxo-1-((2S)-2-(2-(thiazol-2-yl)morpholine-4-carbonyl)pyrrolidin-1-yl)butan-2-yl)carbamoyl)benzo[b]thiophen-5-yl)difluoromethyl)phosphonic acid]"
0.1 to 1,1 to 10,"CC(C)(C)[C@H](NC(=O)c1cc2cc(C(F)(F)P(=O)(O)O)ccc2s1)C(=O)N1CCC[C@H]1C(=O)N1CCOC(c2cccc3ccccc23)C1 (stereo partly drawn) [Compound 129, ((2-(((2S)-3,3-dimethyl-1-((2S)-2-(2-(naphthalen-1-yl)morpholine-4-carbonyl)pyrrolidin-1-yl)-1-oxobutan-2-yl)carbamoyl)benzo[b]thiophen-5-yl)difluoromethyl)phosphonic acid]"
0.1 to 1,> 10,"CC(C)(C)[C@H](NC(=O)c1cc2cc(C(F)(F)P(=O)(O)O)ccc2s1)C(=O)N1CCC[C@H]1C(=O)N1CCOC(c2cccnc2)C1 (stereo partly drawn) [Compound 130, ((2-(((2S)-3,3-dimethyl-1-oxo-1-((2S)-2-(2-(pyridin-3-yl)morpholine-4-carbonyl)pyrrolidin-1-yl)butan-2-yl)carbamoyl)benzo[b]thiophen-5-yl)difluoromethyl)phosphonic acid]"

# The remaining lines, values behind:
SMILES,Ki (STAT6 protein) [µM],Ki (STAT5A) [µM]
"CC(C)(C)[C@H](NC(=O)c1cc2cc(C(F)(F)P(=O)(O)O)ccc2s1)C(=O)N1CCC[C@H]1C(=O)N1CCC(C(=O)O)C(c2ccccc2)C1 (stereo partly drawn) [Compound 123, 1-(((S)-2-(5-(difluoro(phosphono)methyl)benzo [b]thiophene-2-carboxamido)-3,3-dimethylbutanoyl)-L-prolyl)-3-phenylpiperidine-4-carboxylic acid]",1 to 10,> 10
"CC(C)(C)[C@H](NC(=O)c1cc2cc(C(F)(F)P(=O)(O)O)ccc2s1)C(=O)N1CCC[C@H]1C(=O)N1CCCOC(c2ccccc2)C1 (stereo partly drawn) [Compound 124, ((2-(((2S)-3,3-dimethyl-1-oxo-1-((2S)-2-(2-phenyl-1,4-oxazepane-4-carbonyl)pyrrolidin-1-yl)butan-2-yl)carbamoyl)benzo[b]thiophen-5-yl)difluoromethyl)phosphonic acid]",0.1 to 1,1 to 10
"CC(C)(C)[C@H](NC(=O)c1cc2cc(C(F)(F)P(=O)(O)O)ccc2s1)C(=O)N1CCC[C@H]1C(=O)N1CCCCC(c2ccccc2)C1 (stereo partly drawn) [Compound 125, ((2-(((2S)-3,3-dimethyl-1-oxo-1-((2S)-2-(3-phenylazepane-1-carbonyl)pyrrolidin-1-yl)butan-2-yl)carbamoyl)benzo[b]thiophen-5-yl)difluoromethyl)phosphonic acid]",0.1 to 1,1 to 10
"CC1COC(c2ccccc2)CN1C(=O)[C@@H]1CCCN1C(=O)[C@@H](NC(=O)c1cc2cc(C(F)(F)P(=O)(O)O)ccc2s1)C(C)(C)C (stereo partly drawn) [Compound 126, ((2-(((2S)-3,3-dimethyl-1-((2S)-2-(5-methyl-2-phenylmorpholine-4-carbonyl)pyrrolidin-1-yl)-1-oxobutan-2-yl)carbamoyl)benzo[b]thiophen-5-yl)difluoromethyl)phosphonic acid]",0.1 to 1,1 to 10
